Tests used:
[1] = target: T1, COX-1 (Homo sapiens, UniProt P23219); assay: Human whole blood cyclooxygenase assay, COX-1 (clotting-induced TXB2 production); format: cell-based; conditions: clotting 1 h, n=3, read-out: IC50 for inhibition of clotting-induced TXB2 level
T1 construct: Fresh blood from male or female volunteers is collected into vacutainers containing no anticoagulants; from tissue; host or cells: fresh human whole blood without anticoagulant, from male or female volunteers, allowed to clot for 1 h at 37 °C
Experimental: (§1) Whole blood provides a protein and cell-rich milieu for the study of biochemical efficacy of anti-inflammatory compounds such as COX-2 inhibitors and NSAIDs. To study the inhibitory activities of these compounds on the two isoforms of cyclooxygenase (COX-1 and COX-2), human blood is either stimulated with lipopolysaccharide (LPS) for 24 hours to induce COX-2 or the blood is allowed to clot spontaneously to activate COX-1. The production of prostaglandin E2 (PGE2) and thromboxane B2 (TXB2) are measured by immunoassay at the end of the incubation as readouts of COX-2 and COX-1 activity, respectively.
(§2) Human whole blood assays for COX-1 and COX-2 activity, previously reported (Brideau et al, 1996) are performed as described below.
Fresh blood from male or female volunteers is collected into vacutainers containing no anticoagulants. These subjects have no apparent inflammatory conditions and have not taken any NSAIDs for at least 7 days prior to blood collection. Aliquots of 500 μL are immediately transferred to polypropylene tubes preloaded with 2 μL of DMSO or 2 μL of test compounds. The tubes are vortexed and incubated at 37° C. for 1 h to allow the blood to clot. At the end of the incubation, serum is obtained by centrifugation (3,000 rpm for 10 min at […]). […]

[2] = target: T2, COX-2 (Homo sapiens, UniProt P35354); assay: Human whole blood cyclooxygenase assay, COX-2 (LPS-induced PGE2 production); format: cell-based
T2 construct: Fresh blood is collected in heparinized tubes by venipuncture from healthy male volunteers; from tissue; host or cells: fresh heparinized human whole blood from healthy male volunteers, LPS-stimulated for 24 h
T2 sequence (P35354 18-604): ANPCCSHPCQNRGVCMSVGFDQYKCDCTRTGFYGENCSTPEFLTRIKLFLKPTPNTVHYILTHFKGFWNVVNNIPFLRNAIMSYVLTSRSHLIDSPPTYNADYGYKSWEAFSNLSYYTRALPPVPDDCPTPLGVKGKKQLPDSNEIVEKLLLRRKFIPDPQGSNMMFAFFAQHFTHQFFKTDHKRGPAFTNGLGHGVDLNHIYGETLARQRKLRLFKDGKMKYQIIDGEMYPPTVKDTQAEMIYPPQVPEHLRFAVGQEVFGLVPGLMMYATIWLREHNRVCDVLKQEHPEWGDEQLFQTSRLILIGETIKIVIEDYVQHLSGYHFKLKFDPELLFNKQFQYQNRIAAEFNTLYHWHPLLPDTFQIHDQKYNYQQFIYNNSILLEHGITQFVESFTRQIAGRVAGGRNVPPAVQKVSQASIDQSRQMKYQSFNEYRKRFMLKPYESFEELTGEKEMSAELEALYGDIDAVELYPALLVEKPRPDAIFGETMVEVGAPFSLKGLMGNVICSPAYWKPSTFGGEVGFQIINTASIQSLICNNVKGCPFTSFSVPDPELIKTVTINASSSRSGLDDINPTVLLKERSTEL
Experimental: as §1, §2
Fresh blood is collected in heparinized tubes by venipuncture from healthy male volunteers. These subjects have no apparent inflammatory conditions and have not taken any NSAIDs for at least 7 days prior to blood collection. The blood is initially pre-incubated with bacterial lipopolysaccharide (LPS) at 100 μg/ml (Sigma Chem, #L-2630 from E. coli, serotype 0111:B4; diluted in 0.1% w/v bovine serine albumin in phosphate buffered saline). Five minutes later, 500 μL aliquots of the LPS-treated blood aree incubated with 2 μL vehicle (DMSO) or 2 μL of test compounds in DMSO for 24 hr at 37° C. (for induction of COX-2). […]

[3] = test system: gastric erosions; assay: Gastric erosion model in rats (co-dosed with aspirin); format: in vivo, rat; conditions: Wistar rats, compared to rofecoxib dosed with aspirin, 3 hr
Experimental: The gastric protective effects of the combination of the present invention co-administered with aspirin may be evaluated in the following assay.
Male Wistar rats (200–250 g) were fasted for 16–18 h prior to use for experiment. Aspririn, rofecoxib in combination with aspirin (dosed separately), or test compound in combination with aspirin (dosed separately) were given on the morning of the experiment at a dosing volume of 1 ml/kg in 0.5% methocel. Three hr later, the animals were euthanized by CO2 inhalation and the stomach removed, rinsed in saline and prepared for imaging processing. Microscopic pictures of the stomach were taken using a digital camera and gastric erosions were measured using an imaging software by an observer unaware of the treatment groups. The length of gastric erosions was measured in mm and the total length of all erosions from each stomach was obtained and used as gastric damage score.
This model is also described in S. Fiorucci, et al., Gastroenterology, vol. 123, pp. 1598–1606, 2002 and M. Souza, et al., Am. J. Physiol. Gastrointest. Liver Physiol., vol. 285, pp. G54–G61, 2003.

[4] = test system: carrageenan-induced rat paw edema; assay: Carrageenan-induced rat paw edema assay; format: in vivo; conditions: oral, 1 hr pretreatment, Sprague-Dawley rats, paw volume at 3 h, read-out: inhibition of carrageenan-induced edema response
Experimental: The carrageenan-induced rat paw edema assay is an established assay for evaluating the efficacy of conventional, non-selective NSAIDs in acute inflammation (Winter and Flataker, 1965; Mukherjee et al., 1996; Vinegar et al., 1987).
Male Sprague-Dawley rats (200–250 g) are fasted for 16–18 h prior to oral administration of either the vehicle (0.5% methocel) or test compound. One hour later, a line was drawn using a permanent marker at a level above the ankle in one hind paw to define the area of the paw to be monitored. The paw volume (V0) is measured using a plethysmometer (Ugo-Basile, Italy) based on the Archimedes principle of water displacement. The rats are then injected subplantarly with 0.05 mL of a 1% carrageenan (Sigma Chem.) solution in saline using a syringe with a 27-gauge needle (i.e. 500 μg carrageenan per paw). Three hours later, the paw volume (V3) is measured again and the increases in paw volume (V3−V0) is calculated. Paw edema is compared with the vehicle-control group and the percent inhibition calculated taking the values in the control group as 0%.

T1 sequence (P23219 24-599): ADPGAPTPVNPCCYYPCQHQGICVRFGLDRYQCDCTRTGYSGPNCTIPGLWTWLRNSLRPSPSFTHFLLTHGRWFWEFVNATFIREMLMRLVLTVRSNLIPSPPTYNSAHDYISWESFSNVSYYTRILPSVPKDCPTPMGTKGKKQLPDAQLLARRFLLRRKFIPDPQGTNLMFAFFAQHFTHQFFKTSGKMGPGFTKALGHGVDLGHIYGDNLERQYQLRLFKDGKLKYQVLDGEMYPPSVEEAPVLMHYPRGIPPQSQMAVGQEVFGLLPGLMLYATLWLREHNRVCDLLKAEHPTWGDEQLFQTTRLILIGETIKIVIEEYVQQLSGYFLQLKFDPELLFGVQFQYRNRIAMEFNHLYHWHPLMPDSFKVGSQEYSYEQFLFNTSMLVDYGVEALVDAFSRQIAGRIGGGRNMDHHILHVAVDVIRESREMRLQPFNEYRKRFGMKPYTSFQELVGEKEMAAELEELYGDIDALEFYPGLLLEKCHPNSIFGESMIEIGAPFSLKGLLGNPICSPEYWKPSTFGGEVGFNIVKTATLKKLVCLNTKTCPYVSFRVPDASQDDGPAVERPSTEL

IC50 [1]: 7.8 ± 2.6 µM
IC50 ([2]; LPS-stimulated human whole blood, 24 hr, n=6, read-out: IC50 for the inhibition of PGE2 production in a human whole blood assay): 0.22 ± 0.04 µM
COX1/COX2 selectivity ([2]; in vitro human peripheral blood assay, ratio of COX-1 to COX-2 IC50): 35 fold
Compound: CC(=O)OC/C(=C(\C(=O)OCCCCCCO[N+](=O)[O-])c1ccccc1)c1ccc(S(C)(=O)=O)cc1 [Example 1, 6-(nitrooxy)hexyl (2Z)-4-(acetyloxy)-3-[4-(methylsulfonyl)phenyl]-2-phenylbut-2-enoate]
gastric protection (gastric damage score) [3]: significant gastric protection
inhibition at 1 mg/kg [4]: 49%

From patent publication US7169809B2, “Nitric oxide releasing prodrugs of diaryl-2-(5H)-furanones as cyclooxygenase-2 inhibitors” (Merck Frosst Company, priority 2003, dated 2007)
